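Following 48 hours of exposure in 96-well plates, responses at five concentrations were used to interpolate endpoints linearly. GI50 marks 50% less growth.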 Calls of active or inactive are those of the source. Rule as the data show it: active = GI50 up to about 1.1 µM and inactive = higher.
Assays:
Test in all cases: NCI anticancer screen, dose series, 48 h
[1] = tested on: IGROV-1
[2] = tested on: U-251
[3] = tested on: CCRF-CEM
[4] = tested on: ACHN
[5] = tested on: TK-10
[6] = tested on: NCI-H23
[7] = tested on: HCC 2998
[8] = tested on: SF-295
[9] = tested on: MOLT-4
[10] = tested on: A498
[11] = tested on: OVCAR-5
[12] = tested on: HT-29
[13] = tested on: M14
[14] = tested on: CAKI-1
[15] = tested on: SK-MEL-5

Measured: GI50

Cc1ccc2c(c1)-c1c3c(nn1-c1ccccc1)-c1ccccc1SC3O2 (stereo not drawn)
inactive: [1] > 100 µM | [2] > 100 µM | [3] > 100 µM | [4] > 100 µM | [5] > 100 µM | [6] > 100 µM | [7] > 100 µM | [8] > 100 µM | [9] > 100 µM | [10] > 100 µM | [11] 97.1 µM | [12] > 100 µM

COc1ccc(S(=O)(=O)N[C@H](C(=O)O)c2ccccc2)cc1
inactive: [1] > 100 µM | [2] > 100 µM | [3] > 100 µM | [13] > 100 µM | [4] > 100 µM | [5] > 100 µM | [14] > 100 µM | [6] > 100 µM | [7] > 100 µM | [8] > 100 µM | [9] > 100 µM | [11] > 100 µM | [12] > 100 µM | [15] > 100 µM

C/C(=N\NS(=O)(=O)c1ccc(C)cc1)c1c(O)cc(C)oc1=O
inactive: [1] > 100 µM | [2] > 100 µM | [3] > 100 µM | [13] > 100 µM | [4] > 100 µM | [5] > 100 µM | [14] > 100 µM | [6] > 100 µM | [7] > 100 µM | [8] > 100 µM | [9] > 100 µM | [10] > 100 µM | [12] > 100 µM | [15] > 100 µM

N#CCN1C(=O)c2cccc3cc([N+](=O)[O-])cc(c23)C1=O
inactive: [1] 42.9 µM | [2] 38.7 µM | [3] 24.7 µM | [13] 37.3 µM | [4] 42.5 µM | [5] 36.4 µM | [6] 29.5 µM | [7] 44.8 µM | [8] 61.9 µM | [9] 26.4 µM | [10] 47.1 µM | [11] 31.3 µM | [12] 41.8 µM | [15] 43.1 µM

Cc1cc(C)c(-c2noc(-c3ccc(Cl)cc3)c2C2=NCCN2)c(C)c1
inactive: [1] 22.2 µM | [2] 15.7 µM | [3] 20.7 µM | [13] 12.2 µM | [4] 23.1 µM | [14] 76.4 µM | [6] 17.4 µM | [7] 17.8 µM | [8] 14 µM | [9] 16.6 µM | [11] 32.1 µM | [12] 13.3 µM | [15] 11.7 µM

Cc1cc(C)nc(NS(=O)(=O)c2ccc(Nc3c4ccccc4nc4c(C(=O)N5CCN(CCO)CC5)ccc(Cl)c34)cc2)n1
inactive: [1] > 100 µM | [2] 97.3 µM | [3] 25.9 µM | [13] 34 µM | [5] > 100 µM | [14] > 100 µM | [6] > 100 µM | [7] > 100 µM | [8] > 100 µM | [9] 25.9 µM | [10] > 100 µM | [11] > 100 µM | [12] 70 µM | [15] 42.8 µM

CCOC(=O)C(=O)Nc1ccc(C)cc1C
inactive: [1] > 100 µM | [2] > 100 µM | [3] > 100 µM | [13] > 100 µM | [4] > 100 µM | [5] > 100 µM | [14] > 100 µM | [6] > 100 µM | [7] > 100 µM | [8] > 100 µM | [9] > 100 µM | [11] > 100 µM | [12] > 100 µM | [15] > 100 µM

CC(C)c1cc2c(O)c(c1)Cc1cc(C(C)C)cc(c1O)Cc1cc(C(C)C)cc(c1O)Cc1cc(C(C)C)cc(c1O)Cc1cc(C(C)C)cc(c1O)Cc1cc(C(C)C)cc(c1O)C2
inactive: [1] > 100 µM | [2] > 100 µM | [3] > 100 µM | [13] > 100 µM | [4] > 100 µM | [5] > 100 µM | [6] > 100 µM | [7] > 100 µM | [8] > 100 µM | [9] > 100 µM | [11] > 100 µM | [12] > 100 µM | [15] > 100 µM

N#Cc1cc([N+](=O)[O-])ccc1NC(=O)C(=O)C(C(=O)c1ccc2ccccc2c1)C1OCc2ccccc21 (stereo not drawn)
inactive: [1] 17.6 µM | [2] 4 µM | [3] 3.92 µM | [13] 15.1 µM | [4] 14.1 µM | [5] 22.3 µM | [14] 9.4 µM | [6] 4.5 µM | [7] 10.3 µM | [8] 3.15 µM | [9] 2.18 µM | [10] 5.56 µM | [11] 14.2 µM | [12] 12.9 µM | [15] 9.06 µM

CC1OC(OP(=O)(OCc2ccccc2)OCc2ccccc2)C(OC(=O)c2ccccc2)C(OC(=O)c2ccccc2)C1I (stereo not drawn)
inactive: [1] 76 µM | [2] 50.4 µM | [3] 24.5 µM | [13] 37.6 µM | [4] 32.6 µM | [5] > 100 µM | [14] 29.6 µM | [6] 30.3 µM | [7] 54.6 µM | [8] 88.3 µM | [9] 17.3 µM | [11] 98.6 µM | [12] 42.9 µM | [15] 27.3 µM

O=C(N/N=C(\C1=Nc2ccc(Cl)cc2NC1O)C(O)/C=C/c1ccccc1)c1ccncc1 (stereo not drawn)
inactive: [1] > 100 µM | [2] > 100 µM | [3] > 100 µM | [13] > 100 µM | [4] > 100 µM | [5] > 100 µM | [14] > 100 µM | [6] > 100 µM | [7] > 100 µM | [8] > 100 µM | [9] > 100 µM | [11] > 100 µM | [12] > 100 µM | [15] > 100 µM

Cc1nc(N)c(-c2ccccc2)s1
inactive: [1] > 78.2 µM | [2] > 48.5 µM | [3] 36.5 µM | [13] 40.9 µM | [4] > 100 µM | [5] > 100 µM | [14] > 92.7 µM | [6] > 100 µM | [7] > 100 µM | [8] 32.7 µM | [9] > 76.7 µM | [10] > 32.4 µM | [11] > 100 µM | [12] > 58.3 µM | [15] 43.5 µM

CCCN(CCC)C(=O)C(=O)c1c(N)[nH]n(-c2ccccc2)c1=O
inactive: [1] > 100 µM | [2] > 100 µM | [3] 93.3 µM | [13] > 100 µM | [4] > 100 µM | [5] > 100 µM | [14] > 100 µM | [6] > 100 µM | [7] > 100 µM | [8] > 100 µM | [9] > 100 µM | [10] > 100 µM | [11] > 100 µM | [12] > 100 µM | [15] > 100 µM

COC(=O)C(=O)CC(=O)CCn1[nH]c(=O)c(Cl)c(Cl)c1=O
inactive: [1] > 100 µM | [2] > 100 µM | [13] > 100 µM | [4] > 100 µM | [5] > 100 µM | [14] > 100 µM | [6] > 100 µM | [7] > 100 µM | [8] > 100 µM | [10] > 100 µM | [11] > 100 µM | [12] > 100 µM | [15] > 100 µM

c1ccc2c(c1)SC(=C1Sc3ccccc3S1)S2
inactive: [1] > 100 µM | [2] > 100 µM | [3] > 100 µM | [13] > 100 µM | [4] > 100 µM | [5] > 100 µM | [14] > 100 µM | [6] > 100 µM | [7] > 100 µM | [8] > 100 µM | [9] > 100 µM | [12] > 100 µM

N#CC1(Cc2ccc(N)cc2)c2ccccc2C=CN1C(=O)c1ccccc1 (stereo not drawn)
inactive: [1] 77.6 µM | [2] 46.7 µM | [3] 29 µM | [13] 25.6 µM | [4] 31.7 µM | [5] 44.4 µM | [6] 47.1 µM | [7] > 100 µM | [8] 33 µM | [9] 28.9 µM | [10] 40 µM | [11] > 100 µM | [12] 36.1 µM | [15] 21.8 µM

O=C1C(=O)N(c2ccc(Cl)cc2)C(=O)C(=O)C1c1nc2ccccc2o1
inactive: [1] > 100 µM | [2] > 100 µM | [3] > 100 µM | [13] > 100 µM | [4] > 100 µM | [5] > 100 µM | [14] > 100 µM | [6] > 100 µM | [7] > 100 µM | [8] > 100 µM | [9] > 100 µM | [10] > 100 µM | [11] > 100 µM | [12] > 100 µM | [15] > 100 µM

CN(C)/C=N/c1nc2c(ncn2C2OC(CO)C(O)C2O)c(=O)[nH]1 (stereo not drawn)
inactive: [1] > 100 µM | [2] > 100 µM | [13] > 100 µM | [4] > 100 µM | [5] > 100 µM | [14] > 100 µM | [6] > 100 µM | [7] > 100 µM | [8] > 100 µM | [9] > 100 µM | [10] > 100 µM | [11] > 100 µM | [12] > 100 µM | [15] > 100 µM

CC(C)(C)C1CCC(O)(c2ccccc2)CC1 (stereo not drawn)
inactive: [1] > 100 µM | [2] 40.6 µM | [3] 92.9 µM | [13] 71.8 µM | [4] > 100 µM | [5] > 100 µM | [6] > 100 µM | [7] > 100 µM | [8] > 100 µM | [9] 59.8 µM | [10] > 100 µM | [11] > 100 µM | [12] 74.3 µM | [15] 38.3 µM

Reference: ChEMBL document CHEMBL1201862, “PubChem BioAssay data set” (2004)
